Assay results as given in US20220048873A1, “PESTICIDALLY ACTIVE C[…] AMIDE DERIVATIVES” (SYNGENTA CROP PROTECTION AG, priority 2018, published 2022).

Legend:
Format in all cases: in vivo
[1] = system: Spodoptera littoralis (Egyptian Cotton Leaf Worm); assay: Spodoptera littoralis control on sprayed cotton leaf discs; settings: foliar, 72 h, application rate of 200 ppm, L1 larvae, 3 days after infestation, read-out: control (at least one of mortality, anti-feedant effect, growth inhibition)
Description: Cotton leaf discs were placed onto agar in 24-well microtiter plates and sprayed with aqueous test solutions prepared from 10′000 ppm DMSO stock solutions. After drying the leaf discs were infested with five L1 larvae. The samples were assessed for mortality, anti-feeding effect, and growth inhibition in comparison to untreated samples 3 days after infestation. Control of Spodoptera littoralis by a test sample is given when at least one of the categories mortality, anti-feedant effect, and growth inhibition is higher than the untreated sample.

[2] = system: Euschistus heros (Neotropical Brown Stink Bug); assay: Euschistus heros feeding/contact activity on sprayed soybean leaves; settings: 120 h, application rate of 200 ppm, N2 nymphs, 5 days after infestation
Description: Soybean leaves on agar in 24-well microtiter plates were sprayed with aqueous test solutions prepared from 10,000 ppm DMSO stock solutions. After drying the leaves were infested with N2 nymphs. The samples were assessed for mortality 5 days after infestation.

[3] = system: Plutella xylostella (Diamond Back Moth); assay: Plutella xylostella feeding/contact activity on treated artificial diet; settings: 192 h, application rate of 200 ppm, eggs, 8 days after infestation
Description: 24-well microtiter plates with artificial diet were treated with aqueous test solutions prepared from 10,000 ppm DMSO stock solutions by pipetting. After drying, Plutella eggs were pipetted through a plastic stencil onto a gel blotting paper and the plate was closed with it. The samples were assessed for mortality 8 days after infestation.

COC(=O)OCN(CC1(C#N)CC1)C(=O)c1ccc(C2=NO[C@@](c3cc(Cl)c(F)c(Cl)c3)(C(F)(F)F)C2)cc1C [A1, [(1-cyanocyclopropyl)methyl-[4-[(5S)-5-(3,5-dichloro-4-fluoro-phenyl)-5-(trifluoromethyl)-4H-isoxazol-3-yl]-2-methyl-benzoyl]amino]methyl Methyl Carbonate]
≥ 80%: percent control (mortality, anti-feedant effect or growth inhibition) at 200 ppm [1] | mortality at 200 ppm [2] | mortality at 200 ppm [3]

CCOC(=O)OCN(CC1(C#N)CC1)C(=O)c1ccc(C2=NO[C@@](c3cc(Cl)c(F)c(Cl)c3)(C(F)(F)F)C2)cc1C [A2, [(1-cyanocyclopropyl)methyl-[4-[(5S)-5-(3,5-dichloro-4-fluoro-phenyl)-5-(trifluoromethyl)-4H-isoxazol-3-yl]-2-methyl-benzoyl]amino]methyl ethyl carbonate]
≥ 80%: percent control (mortality, anti-feedant effect or growth inhibition) at 200 ppm [1] | mortality at 200 ppm [2] | mortality at 200 ppm [3]
